Biological target: T1, novel organic cation transporter 1 (hOCTN1) (Homo sapiens, UniProt Q9H015)
T1 construct: gene SLC22A4
T1 sequence (Q9H015 1-551): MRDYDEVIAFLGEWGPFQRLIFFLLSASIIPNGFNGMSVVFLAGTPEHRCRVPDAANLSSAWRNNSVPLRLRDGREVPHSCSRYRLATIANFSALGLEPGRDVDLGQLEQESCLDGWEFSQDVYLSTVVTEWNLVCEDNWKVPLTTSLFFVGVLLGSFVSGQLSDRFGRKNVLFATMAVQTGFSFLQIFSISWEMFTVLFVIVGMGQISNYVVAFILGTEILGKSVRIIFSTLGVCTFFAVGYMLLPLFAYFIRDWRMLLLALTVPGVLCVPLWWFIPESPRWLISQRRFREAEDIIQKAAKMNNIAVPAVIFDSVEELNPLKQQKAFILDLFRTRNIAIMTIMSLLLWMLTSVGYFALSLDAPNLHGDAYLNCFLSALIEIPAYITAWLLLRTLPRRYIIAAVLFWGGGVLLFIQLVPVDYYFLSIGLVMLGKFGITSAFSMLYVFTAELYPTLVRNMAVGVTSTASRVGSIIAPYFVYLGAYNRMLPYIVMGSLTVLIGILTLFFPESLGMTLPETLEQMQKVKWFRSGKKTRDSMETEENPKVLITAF
Test: ASP+ uptake in HEK293 cells with doxycycline-induced versus uninduced hOCTN1
Format: cell-based
Source text: ASP+ uptake in HEK293 cells with doxycycline-induced versus uninduced hOCTN1 on novel organic cation transporter 1 (hOCTN1) | ASP^+ is a substrate for hOCTN1. Comparison of ASP^+ uptake by HEK293 cells stably transfected

Structure (SMILES): CN(C)c1ccc(C=Cc2cc[n+](C)cc2)cc1 [ASP+, 4-(4-(Dimethylamino)Styryl)-N-methylpyridinium]
- ASP+ uptake in HEK293 cells with doxycycline-induced versus uninduced hOCTN1: ASP^+ is a substrate for hOCTN1. Comparison of ASP^+ uptake by HEK293 cells stably transfected
